What all share (assay): inhibition of tumour cell growth, NCI panel, 48 h
Assay [1] relates to M19-MEL.
The subject of assay [2] is SNB-78.
In assay [3] the test system is KM-20L2.
For assay [4], the system named is DMS-114.
The test system of assay [5] is DLD-1.
Assay [6] has as its system HOP-18.
Assay [7] concerns DMS-273.
For assay [8], the system named is RXF 631.
The test system of assay [9] is XF498.

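48-hour exposure; five concentrations; linearly interpolated endpoints. The concentration for 50% growth inhibition is given as GI50.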 Calls of active or inactive are those of the source. No stated cut-off is given here; in the data, active = GI50 up to about 1.1 µM and inactive = higher.

For `CC(C)CCC[C@@H](C)C1CCC2[C@@H]3CC=C4C[C@@H](C(=O)NCC[N+](C)(C)CCCS(=O)(=O)[O-])CC[C@]4(C)C3CC[C@@]21C` (some centres undefined), the GI50 in assay [1] is 17.1 µM (inactive); in assay [2], 18.8 µM (inactive); in [3] it was 16.4 µM (inactive); in [4], 19.9 µM (inactive); in assay [5], 22.4 µM (inactive); in [6] it was 17.7 µM (inactive). The GI50 was 17 µM (inactive) in assay [7] and 18.4 µM (inactive) in [8].

Turning to `CC(/C=C/NNC1=NN=C(c2ccccc2)C(c2ccccc2)N1)Sc1ccccc1N` (centres undefined), the GI50 is 9.2 µM (inactive) in assay [1]; 7.31 µM (inactive) in assay [2]; 10.6 µM (inactive) in [3]; 3.62 µM (inactive) in assay [5]; 6.7 µM (inactive) in assay [7]; 13.1 µM (inactive) in [8].

Regarding `O=c1[nH]c(S)nc2c1sc(=S)n2-c1ccccc1`, the GI50 in assay [9], in [1], in assay [2], in assay [3], in assay [4] and in assay [5] was > 100 µM (inactive) each time. Moreover, the GI50 in [6] and in assay [7] was > 100 µM (inactive) throughout.

For the molecule `COc1ccc(-c2cc(-c3cc(Cl)cc(Br)c3O)nc(O)n2)cc1`, the GI50 was 19.7 µM (inactive) in assay [1]; 18.7 µM (inactive) in assay [2]; 19.1 µM (inactive) in [3]; 14.1 µM (inactive) in assay [4]; 16.7 µM (inactive) in assay [5]; 17.2 µM (inactive) in assay [6]. For the same molecule, the GI50 in assay [7] was 15 µM (inactive).

As for `BrC12C3C4C5C(C(C43)C13OCCO3)C52` (centres undefined), the GI50 was 60.4 µM (inactive) in assay [9]; > 100 µM (inactive) in assay [1]; > 100 µM (inactive) in [2]; > 100 µM (inactive) in assay [3]; > 100 µM (inactive) in assay [4]; > 100 µM (inactive) in assay [5]. Also, the GI50 in assay [6] was 8.55 µM (inactive); in assay [7], > 100 µM (inactive); in [8], > 100 µM (inactive).

For the molecule `N#[N+][c-]1c(-c2ccccc2)n[nH]c1=O`, the GI50 in [9], in assay [1], in assay [3], in [4], in assay [5] and in assay [7] was > 100 µM (inactive) in each case. In [8], the GI50 is > 100 µM (inactive).

For the molecule `Cc1cc2nc(O)c(CCC(=O)O)nc2cc1C`, the GI50 in [9] was > 100 µM (inactive); in assay [1], > 100 µM (inactive); in assay [2], > 100 µM (inactive); in assay [3] it was > 100 µM (inactive); in assay [4], 35.6 µM (inactive); in assay [5] it was > 100 µM (inactive). Further, the GI50 in assay [6] and in assay [8] was > 100 µM (inactive) each time.

For `COC(=O)/C(C#N)=C1\CCC(OC)N1C` (centres undefined), the GI50 in assay [9], in assay [1], in [2], in [3], in [4] and in [5] was > 100 µM (inactive) throughout. Also, the GI50 in assay [6] and in assay [7] was > 100 µM (inactive) throughout.

Consider `NC1=NS(=O)(=O)N=C(N)C1=Cc1ccc([N+](=O)[O-])o1`, for which the GI50 was 18.7 µM (inactive) in [9]; 16.5 µM (inactive) in assay [1]; 19.6 µM (inactive) in assay [2]; 16.6 µM (inactive) in assay [3]; 17.7 µM (inactive) in assay [4]; 17.1 µM (inactive) in assay [5]. Further, the GI50 in [6] is 18 µM (inactive); in [7], 16.7 µM (inactive).

In the case of `Cc1ccc2nc(NC(=O)C(=O)C(C#N)c3nc4ccccc4s3)sc2c1` (centres undefined), the GI50 was 28.8 µM (inactive) in assay [9]; 43.6 µM (inactive) in assay [1]; 36.3 µM (inactive) in assay [2]; 28 µM (inactive) in assay [3]; 24.8 µM (inactive) in [4]; 11.6 µM (inactive) in assay [6]. Also, the GI50 is 28.4 µM (inactive) in assay [7] and 44.7 µM (inactive) in assay [8].

In the case of `CC(=O)O[C@@H]1CC(C)C2CC2C2=C(C(O)OC2O)[C@@H]1C(C)CCC=C(C)C` (some centres undefined), the GI50 in assay [9] was 19 µM (inactive); in [1] it was 22.8 µM (inactive); in assay [2] it was 30.5 µM (inactive); in assay [3], 18.7 µM (inactive); in assay [4], 23.2 µM (inactive); in [5], 32.4 µM (inactive). Further, the GI50 in assay [7] was 21.4 µM (inactive).

`C1CN(P2(N3CC3)=NP(N3CC3)(N3CC3)=NP(N3CC3)(N3CC3)=N2)CCO1` (centres undefined) [FOTRETAMINE]: the GI50 is > 100 µM (inactive) in [9]; > 100 µM (inactive) in assay [1]; > 100 µM (inactive) in [2]; > 100 µM (inactive) in [3]; 80.7 µM (inactive) in assay [4]; > 53.5 µM (inactive) in assay [5]. Also, the GI50 in assay [6] was > 100 µM (inactive); in assay [7] it was 32.4 µM (inactive).

For the molecule `Cc1ccccc1/C=C/c1csnn1`, the GI50 is > 100 µM (inactive) in assay [9]; > 80.5 µM (inactive) in assay [1]; > 100 µM (inactive) in [2]; > 100 µM (inactive) in assay [3]; > 40.6 µM (inactive) in [4]; > 49.5 µM (inactive) in [5]. For the same molecule, the GI50 in assay [6], in assay [7] and in [8] was > 100 µM (inactive) each time.

`CCOC(=O)CCC(=O)C1c2cccc(O)c2C(=O)c2c(O)cccc21`: the GI50 is 0.236 µM (active) in [9]; 0.566 µM (active) in [1]; 2.04 µM (inactive) in assay [2]; 0.387 µM (active) in assay [4]; 1.69 µM (inactive) in [5]; 1.77 µM (inactive) in [6]. In assay [7], the GI50 is 1.28 µM (inactive).

In the case of `O=C1C(c2ccccc2)=[N+]([O-])c2ccc(Cl)cc21`, the GI50 in assay [9] was 19 µM (inactive); in [1] it was 20.1 µM (inactive); in assay [3], 35.1 µM (inactive); in assay [4], 12.8 µM (inactive); in [5], 19 µM (inactive); in assay [6] it was 29.6 µM (inactive). Besides, in [8], the GI50 was 32.7 µM (inactive).

With `NCCSc1cc(O)c2c(c1N)C(=O)c1ccccc1C2=O`, the GI50 in [9] was 21.8 µM (inactive); in assay [1], 24.3 µM (inactive); in assay [2] it was 32.1 µM (inactive); in [3], 5.51 µM (inactive); in [5], 30.3 µM (inactive); in assay [8] it was 25.2 µM (inactive).

As to `O=C1NC(=S)NC(=O)C1=Cc1ccc2ccccc2n1`, the GI50 in [1], in assay [2], in assay [3], in [4], in assay [5] and in [6] was > 100 µM (inactive) each time. Moreover, the GI50 in assay [7] was > 100 µM (inactive).

Regarding `COC(=O)C1=Cc2cc(OC)c(OC)c(OC)c2[C@H](c2cc(OC)c(OC)c(OC)c2)C1C(=O)OC` (some centres undefined), the GI50 in [9], in [1], in [2], in assay [3], in assay [4] and in assay [5] was > 100 µM (inactive) in each case. Moreover, the GI50 in assay [7] and in assay [8] was > 100 µM (inactive) in each case.

For the molecule `CCN(CC)C(=O)CCn1ccc(=O)[nH]c1=O`, the GI50 in assay [9], in assay [1], in assay [2], in assay [3], in assay [4] and in assay [7] was > 100 µM (inactive) throughout.

For the molecule `O=C1CC2=CCCC2O1` (centres undefined), the GI50 in assay [9], in assay [1], in [2], in assay [4], in assay [5] and in assay [7] was > 100 µM (inactive) in each case.

Regarding `CN(C)CC1CC/C(=C\c2ccc(Cl)cc2)C1=O` (centres undefined), the GI50 in assay [9] is 7.66 µM (inactive); in [1], 3.54 µM (inactive); in assay [2] it was 16.3 µM (inactive); in assay [3], 12.1 µM (inactive); in assay [4], 7.52 µM (inactive); in assay [5], 3.71 µM (inactive). For the same molecule, the GI50 in assay [6] is 18.2 µM (inactive); in assay [7], 3.85 µM (inactive); in [8] it was 20.4 µM (inactive).

Take `CC1CC2C3CCC4=CC(=O)C=CC4(C)C3(F)C(O)CC2(C)C1(O)C(=O)CO.Cc1nnc(NS(=O)(=O)c2ccc(/N=N/c3cc(/N=N/c4ccc(S(=O)(=O)Nc5nnc(C)s5)cc4)c4c(NC(=O)C(Cl)Cl)cccc4c3OC(=O)C(Cl)Cl)cc2)s1`: the GI50 in [9] is 25.8 µM (inactive); in assay [1] it was 18.5 µM (inactive); in assay [2], > 100 µM (inactive); in [3], 31.3 µM (inactive); in assay [4] it was 18.7 µM (inactive); in assay [5], 16.1 µM (inactive). The GI50 is 11.7 µM (inactive) in assay [7] and 34.6 µM (inactive) in assay [8].

As to `CSC(=O)C[C@@]12O[C@@H]([C@@H](C)C3CCC4[C@@H]5C(O)CC6=CC(=O)C=C[C@]6(C)C5CC[C@@]43C)C[C@](C)(O1)C(C)(C)O2` (some centres undefined), the GI50 was 14.7 µM (inactive) in assay [9]; 1.43 µM (inactive) in assay [1]; 15.5 µM (inactive) in assay [2]; 5.81 µM (inactive) in assay [4]; 15.9 µM (inactive) in [7]; 19.8 µM (inactive) in [8].

As to `O=C(NCO)NCOCn1c(=O)n(CO)c(=O)n(CO)c1=O`, the GI50 was 23.2 µM (inactive) in assay [9]; 32.4 µM (inactive) in assay [1]; 28.4 µM (inactive) in assay [2]; 38.6 µM (inactive) in assay [3]; 34.4 µM (inactive) in assay [4]; 24.9 µM (inactive) in assay [5]. Also, the values for the GI50 in [6] and in [8] were > 100 µM (inactive) and > 61.7 µM (inactive), respectively.
